Patent US20130197028A1, “nAChRalpha7 Agonists and nAChRalpha7 Antagonists for Treating Ulcerative Colitis (UC) and Crohn's Disease (CD)” (priority 2010, published 2013)
Entries after “also recorded” stand apart in the source; their conditions may differ. Where two headings read alike, the source gives them in different places.

Columns and labels:
[1] = test system: TNBS-induced colitis of nAChRα7 deficient mice; conditions: mouse, in vivo
Protocol: (§1) Wild type (WT) nAChRα7 deficient (nAChRα7 knockout; α7KO) mice, both in C57B/6 background, were induced to develop colitis, either with DSS (A) or TNBS (B). […] N≧6 per group;
(§2) To exclude this possibility, nAChRα7 agonist and antagonist were tested on nAChRα7-knockout mice (nAChRα7-KO), in which development of chemically-induced colitis will not be affected by the agents if they are only specific to nAChRα7.

[2] = test system: DSS-induced colitis of nAChRα7 deficient mice; conditions: mouse, in vivo
Protocol: as §1, §2

[3] = test system: mouse behavior (immobility); conditions: DSS-induced colitis mice, IP agonist
Protocol: Tests were carried out on mice forced to swim in a cylindrical container for six minutes. Mice were divided into four groups: (a) control; (b) mice receiving IP agonist; (c) mice induced with DSS; and (d) mice receiving IP agonist and induced with DSS (n=6 in each group). The total duration of immobility in a container with 13 cm of water at 25° C. was scored. Immobility was defined when the mouse stopped struggling and remained floating motionless in the water, making only those movements necessary to keep its head above water. Day 0 and Day 7 indicate the days of DSS treatment.
(§3) Other studies of these nAChRα7-specific drugs, including toxicity and pharmacokinetics, are being investigated.

chronic DSS colitis = experiment: Chronic UC-like DSS colitis, therapeutic treatment; format: in vivo, mice; conditions: four DSS-water cycles, treatment from day 53, followed eleven days
Protocol: (§4) In an acute model, mice were treated with or without nAChRα7 agonist drug for five days. DSS were then given for seven days. Clinical activity scores were assessed. In a chronic model, mice were given DSS for seven days followed by seven days water. These DSS-water cycles were repeated three more times continuously. […] At this point, nAChRα7 agonist was given in one set of mice and all mice were followed for eleven days. […] The arrow indicates the start (day 53) of nAChRα7 agonist treatment in the chronic model;
Induction of chronic UC-like colitis was described in the legends of FIG. 6.

TNBS-induced colitis = format: in vivo, mice; conditions: for effect on CD-like colitis (overall statement): mouse IBD model, acute/chronic not specified; for disease activity (DAI), acute TNBS-colitis: mouse, in vivo
Text: C57BL/6. Mice were pretreated either with PBS (control), or nicotine, PNU (α7 agonist), or MLA drug by peritoneal injection once daily for five days. Mice were then induced to develop colitis for seven days with either TNBS (in 50% ethanol) or 50% ethanol alone as a control. Disease activity of all mice was monitored daily.
(§5) For CD-like mouse model, BALB/c mice were used for the induction of DSS colitis. For CD-like mouse model, BALB/c mice were used for the induction of TNBS-colitis. C57/B6 or BALB/c mice, 6-8 weeks old, were pretreated (daily peritoneal injection) for one week with either nicotine (a non-specific ligand of nAChRα7; 6 mg/kg) or a nAChRα7-specific agonist (PNU; 8.3 mg/kg). Controls were mice without the pre-treatments (a total of >10 mice in each treatment group). The mice were then induced to develop either CD-like colitis with TNBS (600 μg) or UC-like colitis with DSS (2.5%).

DSS-induced colitis = format: in vivo, mice; conditions: for effect on UC-like colitis (overall statement): mouse IBD model, acute/chronic not specified
Protocol: as §4, §5

[4] = at the dose used in the preclinical studies
Text: as §3

[5] = test system: chronic TNBS-induced colitis; format: in vivo, mice
[6] = test system: Gpx1/2-double knockout (DKO) mice ileocolitis; experiment: GPX 1/2 DKO colitis; format: in vivo; conditions: administered once signs of colitis were evident
Protocol: Clinical activity scores were assessed.
Once signs of colitis were immediately evident, both nAChRα7 agonists and nAChRα7 antagonists were administered to Gpx1/2-DKO mice.

[7] = test system: Immortalized (EBV-transformed) B lymphocytes of patients with UC, CD, and unaffected controls
Ulcerative colitis (UC) = conditions: human, in vivo; cited from earlier work
[8] = treatment of established chronic colitis

Compound | therapeutic effect on TNBS-induced colitis in nAChRα7KO mice [1] | therapeutic effect on DSS-induced colitis in nAChRα7KO mice [2] | immobility of DSS-mice in forced swim test [3] | disease activity (clinical activity score), chronic DSS colitis (chronic DSS colitis) | effect on CD-like colitis (overall statement) (TNBS-induced colitis) | disease activity (DAI), acute TNBS-colitis (TNBS-induced colitis) | effect on UC-like colitis (overall statement) (DSS-induced colitis) | disease activity (DAI), acute DSS-colitis (DSS-induced colitis; mouse, in vivo) | potency compared with nicotine in preventing DSS-induced UC-like colitis (DSS-induced colitis; mouse, in vivo) | adverse effect on mice [4] | appearance of major organs (heart, kidney, liver, small and large intestines, spleen) [4] | disease activity (DAI), chronic TNBS-colitis [5, 8] | colitis clinical activity score, GPX 1/2 DKO mice [6] | anti-inflammatory cytokine IL-10 production [7] | cytokine/chemokine changes, agent by itself [7] | production of proinflammatory cytokine/chemokine IL-8 and MIP-1 [7] | clinical efficacy in UC (Ulcerative colitis (UC)) | disease activity (DAI), chronic TNBS-colitis ([5]; mouse, in vivo)
O=C(N[C@H]1CN2CCC1CC2)c1ccc(Cl)cc1 [PNU, N-[(3R)-1-azabicyclo[2.2.2]oct-3-yl]-4-chlorobenzamide] | neither agonist (PNU) nor antagonist (MLA) was efficacious; also recorded: no effect at all | neither agonist (PNU) nor antagonist (MLA) was efficacious; also recorded: no effect at all | completely reversed the immobility | effectively reverse the disease course; also recorded: essentially eliminated the inflammation | worsened CD-like colitis | greatly worsens; also recorded: worsens the disease; also recorded: either no therapeutic benefit, even worsening disease activity | highly effective therapeutics for UC-like colitis | prevents DSS-induced UC-like colitis; also recorded: preventing DSS-induced colitis; also recorded: essentially eliminated the inflammation; also recorded: effectively prevent | slightly more potent | no adverse effect | look normal by appearance | no significant effect | highly effective in treating colitis | – | – | – | – | –
CN1CCCC1c1cccnc1 (stereo not drawn) [nicotine] | – | – | – | – | – | – | – | prevents the development; also recorded: prevents DSS-induced UC-like colitis; also recorded: effective in preventing UC-like DSS-colitis | – | – | – | – | – | significant inhibition | insignificant cytokine/chemokine changes | significant production | significant clinical efficacy | no significant effect
CCN1C[C@]2(COC(=O)c3ccccc3N3C(=O)C[C@H](C)C3=O)CC[C@H](OC)[C@@]34[C@@H]5C[C@H]6[C@H](OC)[C@@H]5[C@](O)(C[C@@H]6OC)[C@@](O)([C@@H](OC)[C@H]23)[C@@H]14 [MLA, methyllycaconitine] | – | – | – | – | highly effective therapeutic agent for CD-like colitis | efficiently prevent; also recorded: preventing acute TNBS-colitis; also recorded: essentially disappeared; also recorded: effectively prevent | has no effect on UC-like colitis | – | – | – | – | highly therapeutic effect; also recorded: effectively reverses the disease course | – | – | – | – | – | –
COc1ccc(/C=C2\CCCN=C2c2cccnc2)c(OC)c1 [GTS-21, 3-(2,4-dimethoxybenzylidene) anabaseine] | – | – | – | effectively reverse the disease course | worsened CD-like colitis | – | highly effective therapeutics for UC-like colitis | similarly effect of preventing development; also recorded: preventing DSS-induced colitis | – | – | – | – | – | – | – | – | – | –
